Data set [1] is described as follows: Anthelmintic activities (general statement). As to conditions: no parasite or test named.
Data set [2] is described as follows: Solubilities (physico-chemical properties). In kind it is physicochemical.

Here are results for one molecule from US6146853A, “Cyclic depsipeptide PF 1022G” (Meiji Seika Kaisha Ltd., priority 1996, dated 2000).

With `CC(C)C[C@H]1C(=O)O[C@H](C)C(=O)N(C)[C@@H](CC(C)C)C(=O)O[C@H](C)C(=O)N(C)[C@@H](CC(C)C)C(=O)O[C@H](C)C(=O)N(C)[C@@H](CC(C)C)C(=O)O[C@H](C)C(=O)N1C` [PF 1022F substance], the anthelmintic activities entry in data set [1] was “having anthelmintic activities”. Besides, the “Solubilities: soluble in” value in data set [2] (chloroform, acetone, ethyl acetate, methanol and dimethylsulfoxide) is listed as “Soluble”. Further, the “Solubilities: insoluble in” value in data set [2] (water and n-hexane) was “Insoluble”. For the same molecule, the solubility in water entry in data set [2] (water, statement in the recovery description) was “insoluble in water”.
